From patent US11827624B2, “Covalent immune recruiter compounds for immune cell recognition and associated uses” (McMaster University, priority 2020, dated 2023) come the findings set out here.

Structures are written as SMILES.

This test has as its system PSMA coated beads. Nature of the test: Flow cytometry ADCP assay, PSMA coated beads and U937 monocytes. Format: cell-based, human. Conditions: 400 nM CIR 3, 200 nM anti-DNP IgG, 10% FBS+RPMI. On the procedure: 24 hours prior to inducing phagocytosis, 6 million U937 monocytes were seeded at 500,000 cells/mL and activated with IFN-γ ([…]). These cells were then counted and washed twice with serum free assay media (neat RPMI). Cells were then suspended to a concentration of 1 million cells/mL and stained with 1.9 μM Vybrant™ DiD Cell-Labelling Solution for 30 minutes (37° C., 5% CO2). Cells were then washed 3× with warm assay media (AM, 10% Ultra Low IgG FBS in RPMI) and resuspended to a concentration of 1.5 million cells/mL for use.
5.6 million YG strep beads were washed 3× with PBS and resuspended in 150 μL of a saturating concentration of biotinylated-PSMA solution. This was allowed to incubate at 4° C. for 1 hour and then washed 3× with serum free AM. The beads were resuspended with AM to a concentration of 15 million beads/mL for use.
All stocks were made in AM. The initial anti-DNP antibody stock solution was made (320 μL of 200 nM). 75 μL of this was removed and 0.4 μL of PMPA solution was added (250 mM in DMSO). […] Beads were detected in the PE-Cy7 channel, monocytes were detected in the APC Cy7 channel, PSMA loading was confirmed with the Alexa 647 channel. […] ADCP was determined by plotting monocyte stain against bead stain, and was quantified as % Target Phagocytosis=(Double Positive Events)/PSMA Bead Target Events+Double Positive Events×100. […]
(In general: In flow cytometry, cells or beads pass a laser one at a time.)

Consider `O=C(O)CC[C@H](NC(=O)N[C@@H](CCCCNC(=O)NCCOCCOCCOCCOCCOCCOCCOCCOC(=O)n1cnc(CCNC(=O)CNc2ccc([N+](=O)[O-])cc2[N+](=O)[O-])c1)C(=O)O)C(=O)O` [CIR 3], for which the “ADCP of PSMA coated beads” value was “could selectively affect ADCP of PSMA coated target beads via covalent recruitment of anti-DNP, in a time dependent manner”.
